Key:
Alternaria solani = assay: Activity against early blight of tomato caused by Alternaria solani (protective spray, potted plants); assay type: in vivo; conditions: 250 ppm active compound; tomato cultivar St. Pierre beef tomato; infected next day; assessed after 5 days; untreated plants 80% infected
Procedure: The active compounds were prepared as a stock solution comprising 0.25% by weight of active compound in acetone or dimethyl sulfoxide (DMSO). 1% by weight of the emulsifier Uniperol® EL (wetting agent having emulsifying and dispersing action based on ethoxylated alkylphenols) was added to this solution, and the mixture was diluted with water to the desired concentration. Leaves of potted plants of the cultivar “St. Pierre beef tomato” were sprayed to run off point with an aqueous suspension having the concentration of active compounds stated below. The next day, the leaves were infected with an aqueous zoospore suspension of Alternaria solani in 2% biomalt solution having a density of 0.17×10^6 spores/ml. The plants were then placed in a water-vapor-saturated chamber at temperatures of between 20 and 22° C. After 5 days, the infection on the leaves of the untreated, but infected control plants had developed to such an extent that the infection could be determined visually in %.

Botrytis cinerea = assay: Activity against gray mold on bell pepper leaves caused by Botrytis cinerea (protective spray, seedlings); assay type: in vivo; conditions: 250 ppm active compound; bell pepper seedlings Neusiedler Ideal Elite; inoculated next day; assessed after 5 days; untreated plants 90% infected
Procedure: The active compounds were prepared as a stock solution comprising 0.25% by weight of active compound in acetone or dimethyl sulfoxide (DMSO). 1% by weight of the emulsifier Uniperol® EL (wetting agent having emulsifying and dispersing action based on ethoxylated alkylphenols) was added to this solution, and the mixture was diluted with water to the desired concentration.
Bell pepper seedlings of the cultivar “Neusiedler Ideal Elite” were, after 2-3 leaves were well developed, sprayed to runoff point with an aqueous suspension having the concentration of active compound stated below. The next day, the treated plants were inoculated with a spore suspension of Botrytis cinerea which contained 1.7×10^6 spores/ml in a 2% strength aqueous biomalt solution. The test plants were then placed in a climatized chamber at 22-24° C. and high atmospheric humidity. After 5 days, the extent of the fungal infection on the leaves could be determined visually in %.

Structure (SMILES): CCC(C)Cc1c(-c2ccc([N+](=O)[O-])cc2Cl)c(C)nc2ncnn12 (centres unmarked) [example 1, 5-methyl-6-(2chloro-4-nitrophenyl)-7-(2-methylbutyl)-1,2,4-triazolo[1,5-a]pyrimidine]
- infection on the leaves determined visually in % (Alternaria solani): less than 5%
- extent of the fungal infection on the leaves determined visually in % (Botrytis cinerea): no infection
